In patent US12545695B2, “Compounds for inhibiting neovascularization factors and use thereof” (UNIST (ULSAN NATIONAL INSTITUTE OF SCIENCE AND TECHNOLOGY), priority 2019, dated 2026):

Experiments:
Type in all cases: cell-based
HIF-1α = test: Western blot of HIF-1α in Muller cells (MIO-M1) under hypoxia; conditions: MIO-M1, hypoxic chamber 1% O2 (FIG. 8)
Protocol: Muller cells (MIO-M1) were cultured at 37° C. and 5% CO2, and DMEM-low glucose (Sigma) including 10% fetal bovine serum and 1% penicillin & streptomycin was used as the medium. A hypoxic chamber was maintained at 37° C., 5% CO2 and 1% O2.
Muller cells (MIO-M1) were seeded in the number of 4×10^5 on a 60-millimeter plate and cultured in 3 ml of medium for 24 hours. The next day, the cells were treated with SMX, a mitochondrial heat shock protein 90 (TRAP1) inhibitor according to the concentrations shown in the drawing and cultured in a hypoxic chamber for 6 hours. Whole cell lysates were made from the cultured cells, electrophoresed, transferred to a PVDF membrane, and then treated with a primary antibody at 4° C. for 18 hours. The next day, the whole cell lysates were treated with a secondary antibody for 1 hour and protein expression was analyzed using a western blotting detection reagent.
Muller cells (MIO-M1) were cultured at 37° C. and 5% CO2, and DMEM-low glucose (Sigma) including 10% fetal bovine serum and 1% penicillin & streptomycin was used as the medium. A hypoxic chamber was maintained at 37° C., 5% CO2 and 1% O2. […] The next day, the whole cell lysates were treated with a secondary antibody for 1 hour and protein expression was analyzed using a western blotting detection reagent.

[1] = test system: neovascularization factors; test: Expression of neovascularization factors in Muller cells (western blot / PCR RNA level analysis); conditions: MIO-M1, 1% O2 (FIG. 9)
Protocol: Muller cells were treated with gamitrinib and SMX at 3 uM and cultured in a 1% O2 environment for 8 hours, and then total RNA was extracted (Qiagen, total RNA extraction kit). cDNA was synthesized from 1 ug of total RNA (NEB, cDNA synthesis kit). After angiogenic factors were synthesized using PCR, the RNA level was analyzed by agarose electrophoresis.
Muller cells (MIO-M1) were cultured at 37° C. and 5% CO2, and DMEM-low glucose (Sigma) including 10% fetal bovine serum and 1% penicillin & streptomycin was used as the medium. A hypoxic chamber was maintained at 37° C., 5% CO2 and 1% O2. Muller cells (MIO-M1) were seeded in the number of 4×10^5 on a 60-millimeter plate and cultured in 3 ml of the medium for 24 hours. The next day, the cells were treated with SMx, a mitochondrial heat shock protein 90 (TRAP1) inhibitor, and gamitrinib and PU-H71, which are previously developed N-terminal domain inhibitors of hsp90s, according to the concentrations shown in the drawing, and cultured in a hypoxic chamber for 24 hours. Whole cell lysates were made from the cultured cells, electrophoresed, transferred to a PVDF membrane, and then treated with a primary antibody at 4° C. for 18 hours. The next day, the whole cell lysates were treated with a secondary antibody for 1 hour and protein expression was analyzed using a western blotting detection reagent.

TRAP1 = target: T1, TRAP1 (Homo sapiens, UniProt Q12931); test: Western blot of TRAP1 client proteins (SIRT3, SDHB) in 22Rv1 cell lines; parameters: dose or concentration left out as unconfirmed; conditions: 22Rv1 cells, 2 hours, normalized with DMSO (FIG. 24)
T1 construct: endogenous in cells; host or cells: 22Rv1
T1 sequence (Q12931 60-704): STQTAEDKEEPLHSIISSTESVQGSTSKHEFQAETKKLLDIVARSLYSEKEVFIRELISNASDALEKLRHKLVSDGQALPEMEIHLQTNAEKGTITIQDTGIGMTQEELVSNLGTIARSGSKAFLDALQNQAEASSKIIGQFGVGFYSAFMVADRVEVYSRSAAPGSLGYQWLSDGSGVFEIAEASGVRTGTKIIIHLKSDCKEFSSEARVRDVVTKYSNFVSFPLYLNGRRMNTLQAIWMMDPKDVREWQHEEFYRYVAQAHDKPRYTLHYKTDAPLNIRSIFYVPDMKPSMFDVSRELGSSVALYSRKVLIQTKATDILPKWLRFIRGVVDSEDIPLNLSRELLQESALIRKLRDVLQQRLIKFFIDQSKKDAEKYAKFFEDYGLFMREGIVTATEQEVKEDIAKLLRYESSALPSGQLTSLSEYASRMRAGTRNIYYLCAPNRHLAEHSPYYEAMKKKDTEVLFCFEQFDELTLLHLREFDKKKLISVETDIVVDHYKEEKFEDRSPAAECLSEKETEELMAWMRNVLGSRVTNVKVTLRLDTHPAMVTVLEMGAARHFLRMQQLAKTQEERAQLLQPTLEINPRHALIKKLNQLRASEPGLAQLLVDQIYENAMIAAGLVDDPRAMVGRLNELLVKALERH
Protocol: 22Rv1 cell lines were cultured at 37° C. and 5% CO2, and DMEM-low glucose (Sigma) including 10% fetal bovine serum and 1% penicillin & streptomycin was used as the medium.
22Rv1 cell lines were eeded in the number of 5×10^5 on a 60-millimeter plate, and cultured in 3 ml of medium for 24 hours. The next day, the cells were treated with […] SMx and SM-series (SB-U005, SB-U009, SB-U011, SB-U012), mitochondrial heat shock protein 90 (TRAP1) and cultured for 2 hours. Whole cell lysates were made from the cultured cells, electrophoresed, transferred to a PVDF membrane, and then treated with a primary antibody at 4° C. for 18 hours. The next day, the whole cell lysates were treated with a secondary antibody for 1 hour and protein expression was analyzed using a western blotting detection reagent (FIG. 24).
The cultured cells were treated with the SMx molecule and novel compound molecules SB-U005, SB-U009, SB-U011, and SB-U012 synthesized in Example 6 as drugs, and the treatment results were normalized with DMSO.

HIF1-α = test: Drug activity in MIO-M1-HRE/GFP cell line under hypoxia (GFP fluorescence); conditions: 1% O2, 24 hours (FIG. 25)
Protocol: After MIO-M1 Muller cells were transfected with a 5HRE/GFP plasmid (Addgene #46926) (jetPrime kit), plasmid-transfected cells were selected using 1 mg/ml G418 (neomycin) which is a selection marker. A stable cell line was manufactured by selecting cells that were growing in the form of a colony from single cells. The manufactured stable MIO-M1-HRE/GFP cell line was aliquoted into 96 wells and treated with a drug at each concentration the next day. After the cell line was exposed to a hypoxic environment (1% O2) for 24 hours, GFP (Ex/Em: 488/507) fluorescence signals were measured by a SYNERGY NEO microplate reader (BioTek Instrument). As a negative control, DMSO, which is a solvent in which a drug was dissolved, was used, and calculation was performed based on the negative control as 100%.

COC1=C(OC)C(=O)C(CCCCCCCCCC[P+](c2ccccc2)(c2ccccc2)c2ccccc2)=C(C)C1=O [SMx]
expression of HIF-1α (HIF-1α): suppressed
expression of well-known neovascularization factors [1]: suppressed
concentrations of the client proteins (SIRT3, SDHB) (TRAP1): significantly decreased
suppression of neovascularization factor HIF1-α (HRE/GFP signal) (HIF1-α): suppressed
